Data taken from ChEMBL document CHEMBL3885881, “DrugMatrix”.

Species on record: Rattus norvegicus
Experiment: DrugMatrix - Regimen: Daily Repeat
Assay type: toxicity, organism-based, Sprague-Dawley
Design: regimen Daily Repeat, gender Male, age 6-8 weeks
Details: in vivo, po, 0 mg/kg, route oral GAVAGE, dose level Control, vehicle .5 % CMC; for BASOPHIL / EOSINOPHIL / ERYTHROCYTE COUNT / HEMATOCRIT / HEMOGLOBIN / LEUKOCYTE COUNT / LYMPHOCYTE / MEAN CORPUSCULAR HEMOGLOBIN / MEAN CORPUSCULAR HEMOGLOBIN CONCENTRATION / MEAN CORPUSCULAR VOLUME / MONOCYTE / NEUTROPHIL / PLATELET COUNT: tissue Blood; for ALANINE AMINOTRANSFERASE / ALBUMIN / ALKALINE PHOSPHATASE / ASPARTATE AMINOTRANSFERASE / BLOOD UREA NITROGEN / CHLORIDE / CHOLESTEROL / CREATINE PHOSPHOKINASE / CREATININE / GLUCOSE / PHOSPHORUS / POTASSIUM / SODIUM / TOTAL BILIRUBIN / TOTAL PROTEIN: tissue Plasma

Structure (SMILES): Clc1ccccc1CN1CCc2sccc2C1 [TICLOPIDINE]
- BASOPHIL (72 h, time 3 day): 0%
- EOSINOPHIL (72 h, time 3 day): 0%
- ERYTHROCYTE COUNT (72 h, time 3 day): 6.19 x10E6/uL
- HEMATOCRIT (72 h, time 3 day): 36.94%
- HEMOGLOBIN (72 h, time 3 day): 14.58 G/DL
- LEUKOCYTE COUNT (72 h, time 3 day): 11.54 x10E3/uL
- LYMPHOCYTE (72 h, time 3 day): 84.8%
- MEAN CORPUSCULAR HEMOGLOBIN (72 h, time 3 day): 23.58 pg
- MEAN CORPUSCULAR HEMOGLOBIN CONCENTRATION (72 h, time 3 day): 39.44 G/DL
- MEAN CORPUSCULAR VOLUME (72 h, time 3 day): 59.76 fL
- MONOCYTE (72 h, time 3 day): 1.4%
- NEUTROPHIL (72 h, time 3 day): 13.8%
- PLATELET COUNT (72 h, time 3 day): 1068.8 x10E3/uL
- ALANINE AMINOTRANSFERASE (72 h, time 3 day): 38.17 u/L
- ALBUMIN (72 h, time 3 day): 3.88 G/DL
- ALKALINE PHOSPHATASE (72 h, time 3 day): 391.33 u/L
- ASPARTATE AMINOTRANSFERASE (72 h, time 3 day): 69.83 u/L
- BLOOD UREA NITROGEN (72 h, time 3 day): 15 mg/dL
- CHLORIDE (72 h, time 3 day): 104.17 MEQ/L
- CHOLESTEROL (72 h, time 3 day): 72.17 mg/dL
- CREATINE PHOSPHOKINASE (72 h, time 3 day): 174.33 u/L
- CREATININE (72 h, time 3 day): 0.58 mg/dL
- GLUCOSE (72 h, time 3 day): 192.67 mg/dL
- PHOSPHORUS (72 h, time 3 day): 10.52 mg/dL
- POTASSIUM (72 h, time 3 day): 6.8 MEQ/L
- SODIUM (72 h, time 3 day): 149.67 MEQ/L
- TOTAL BILIRUBIN (72 h, time 3 day): 0.78 mg/dL
- TOTAL PROTEIN (72 h, time 3 day): 6.28 G/DL
- BASOPHIL (120 h, time 5 day): 0%
- EOSINOPHIL (120 h, time 5 day): 0.17%
- ERYTHROCYTE COUNT (120 h, time 5 day): 6.72 x10E6/uL
- HEMATOCRIT (120 h, time 5 day): 40.02%
- HEMOGLOBIN (120 h, time 5 day): 15.83 G/DL
- LEUKOCYTE COUNT (120 h, time 5 day): 9.5 x10E3/uL
- LYMPHOCYTE (120 h, time 5 day): 87.17%
- MEAN CORPUSCULAR HEMOGLOBIN (120 h, time 5 day): 23.57 pg
- MEAN CORPUSCULAR HEMOGLOBIN CONCENTRATION (120 h, time 5 day): 39.62 G/DL
- MEAN CORPUSCULAR VOLUME (120 h, time 5 day): 59.55 fL
- MONOCYTE (120 h, time 5 day): 1.67%
- NEUTROPHIL (120 h, time 5 day): 11%
- PLATELET COUNT (120 h, time 5 day): 1053.67 x10E3/uL
- ALANINE AMINOTRANSFERASE (120 h, time 5 day): 26.33 u/L
- ALBUMIN (120 h, time 5 day): 4.02 G/DL
- ALKALINE PHOSPHATASE (120 h, time 5 day): 316.67 u/L
- ASPARTATE AMINOTRANSFERASE (120 h, time 5 day): 61.33 u/L
- BLOOD UREA NITROGEN (120 h, time 5 day): 18.67 mg/dL
- CHLORIDE (120 h, time 5 day): 108 MEQ/L
- CHOLESTEROL (120 h, time 5 day): 65.17 mg/dL
- CREATINE PHOSPHOKINASE (120 h, time 5 day): 161.17 u/L
- CREATININE (120 h, time 5 day): 0.75 mg/dL
- GLUCOSE (120 h, time 5 day): 177.33 mg/dL
- PHOSPHORUS (120 h, time 5 day): 9.72 mg/dL
- POTASSIUM (120 h, time 5 day): 6.18 MEQ/L
- SODIUM (120 h, time 5 day): 150.5 MEQ/L
- TOTAL BILIRUBIN (120 h, time 5 day): 0.68 mg/dL
- TOTAL PROTEIN (120 h, time 5 day): 6.55 G/DL
